The results in this text go back to PMC3911823 (The FEBS journal, 2011).

Substitutions are numbered along the chain they refer to.

What all share (format): biochemical, rabbit (Oryctolagus cuniculus)
In data set [1] the target is T1, P450 2B4 E474Q (Oryctolagus cuniculus, UniProt P00178, E474Q).
T1 sequence (P00178 with tags, fused parts or gaps E474Q limits assumed): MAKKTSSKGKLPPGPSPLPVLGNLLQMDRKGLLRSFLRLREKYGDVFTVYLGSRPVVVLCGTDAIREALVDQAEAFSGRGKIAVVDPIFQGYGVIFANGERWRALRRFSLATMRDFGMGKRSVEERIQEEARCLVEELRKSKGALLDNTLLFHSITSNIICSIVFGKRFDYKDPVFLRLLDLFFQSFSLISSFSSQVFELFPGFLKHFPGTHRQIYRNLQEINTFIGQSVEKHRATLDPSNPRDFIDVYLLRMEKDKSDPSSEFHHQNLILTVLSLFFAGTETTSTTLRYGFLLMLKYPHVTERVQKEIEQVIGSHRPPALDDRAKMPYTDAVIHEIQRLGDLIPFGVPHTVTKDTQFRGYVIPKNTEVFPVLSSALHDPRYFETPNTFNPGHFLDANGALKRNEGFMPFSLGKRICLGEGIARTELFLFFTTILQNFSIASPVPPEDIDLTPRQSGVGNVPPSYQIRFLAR
The experiment in a line: Inhibition of 7-EFC O-deethylation by imidazole inhibitors.

Data set [2] addresses T2, P450 2B4 H172Q (Oryctolagus cuniculus, UniProt P00178, H172Q).
T2 sequence (P00178 with tags, fused parts or gaps H172Q limits assumed): T1 sequence (P00178 with tags, fused parts or gaps E474Q limits assumed) with H153Q, Q455E

Data set [3] has as its target T3, P450 2B4 wild type (Oryctolagus cuniculus, UniProt P00178).
T3 sequence (P00178 with tags, fused parts or gaps limits assumed): T1 sequence (P00178 with tags, fused parts or gaps E474Q limits assumed) with Q455E
As to conditions: 2B4 WT.

Turning to `Clc1ccc(-c2c[nH]cn2)cc1` [4-CPI, 4-(4-chlorophenyl)imidazole], in data set [1], the IC50 (usually the concentration needed to halve the response being measured) worked out at 500 nM. Besides, the “Ratio 4-CPI IC50/Bifonazole IC50” value in data set [1] (2B4 E474Q, 50 μM 7-EFC as substrate) came out at 0.62.

As for `O=c1ccc2nc3ccc(OCc4ccccc4)cc3oc-2c1` [7-BR, 7-benzyloxyresorufin], in data set [2], the “decrease (change) in kcat versus wild type” value is reported as ~ 15 fold. The kcat – broadly, the number of substrate molecules converted per active site and unit of time at saturation – in data set [2] worked out at 0.0083 ± 0.0017 s⁻¹; in data set [3] (substrate O-dealkylation), 0.127 ± 0.005 s⁻¹. The kcat/S50 turned out to be 0.06 in data set [2] and 3.3 in data set [3]. In addition, the S50 in data set [2] (Hill equation) is 8.2 ± 1.0 µM; in data set [3] (Hill equation), 2.3 ± 0.5 µM.
